According to ChEMBL document CHEMBL1255553, “Unusual antimalarial meroditerpenes from tropical red macroalgae” (Bioorg Med Chem Lett, 2010):
Converted amounts (≈) assume the structure as drawn.

Each molecule was assayed on Enterococcus faecium (assay: Antimicrobial activity against vancomycin-resistant Enterococcus faecium).
Type: functional
`CC1=C2Cc3cc(ccc3O)C(=O)O[C@H](C(C)(C)Br)CC[C@](C)(O)[C@H](Br)CC[C@]2(C)[C@@H](Br)CC1` showed an MIC of 5.9 µM (≈ 3.93 µg/mL).
Molecule `Cc1cc(O)c(C)c(CC[C@](C)(O)CCC[C@H](C)CCC[C@H](C)CCCC(C)C)c1O` has an MIC greater than 500 µM.
For `Cc1cc(O)cc(CC[C@](C)(O)CCC[C@H](C)CCC[C@H](C)CCCC(C)C)c1O`, the MIC was greater than 500 µM.
`CC1=CC(=O)C=C(CC[C@](C)(O)CCC[C@H](C)CCC[C@H](C)CCCC(C)C)C1=O` was tested, and the MIC was greater than 500 µM.
With `CC(C)=CCC[C@@](C)(O)[C@@H]1CC/C(C)=C/CC/C(C)=C/Cc2cc(ccc2O)C(=O)O1` [CALLOPHYCOLIDE A] the MIC was 9.1 µM (≈ 3.88 µg/mL).

What follows are molecules tested on Plasmodium falciparum (assay: Antimalarial activity against Plasmodium falciparum).
Type: functional, organism-based
In the case of `CC1=C2Cc3cc(ccc3O)C(=O)O[C@H](C(C)(C)Br)CC[C@](C)(O)[C@H](Br)CC[C@]2(C)[C@@H](Br)CC1`, the IC50 is reported as 0.7 µM.
`CC1=C2Cc3cc(ccc3O)C(=O)O[C@H](C(C)(C)O)CC[C@]3(C)O[C@H]3C/C=C(\C)C2CC1` (some centres not stated) was tested, and the IC50 was greater than 100 µM.
`Cc1cc(O)c(C)c(CC[C@](C)(O)CCC[C@H](C)CCC[C@H](C)CCCC(C)C)c1O` showed an IC50 of 190 µM.
`Cc1cc(O)cc(CC[C@](C)(O)CCC[C@H](C)CCC[C@H](C)CCCC(C)C)c1O` gave an MIC of 220 µM (≈ 92.5 µg/mL).
In the case of `CC1=CC(=O)C=C(CC[C@](C)(O)CCC[C@H](C)CCC[C@H](C)CCCC(C)C)C1=O`, the IC50 is reported as 10 µM.
`CC(C)=CCC[C@@](C)(O)[C@@H]1CC/C(C)=C/CC/C(C)=C/Cc2cc(ccc2O)C(=O)O1` [CALLOPHYCOLIDE A] showed an IC50 of 5.2 µM.

The molecules below were run on SHP77 (assay: Anticancer activity against human SHP77 cells).
Type: functional, cell-based
For `CC(C)=CCC[C@@](C)(O)[C@@H]1CC/C(C)=C/CC/C(C)=C/Cc2cc(ccc2O)C(=O)O1` [CALLOPHYCOLIDE A], the IC50 was 9.2 µM.

Each molecule was assayed on Staphylococcus aureus (assay: Antimicrobial activity against methicillin-resistant Staphylococcus aureus).
Type: functional
Molecule `CC1=C2Cc3cc(ccc3O)C(=O)O[C@H](C(C)(C)Br)CC[C@](C)(O)[C@H](Br)CC[C@]2(C)[C@@H](Br)CC1` has an MIC of 5.9 µM (≈ 3.93 µg/mL).
Molecule `Cc1cc(O)c(C)c(CC[C@](C)(O)CCC[C@H](C)CCC[C@H](C)CCCC(C)C)c1O` has an MIC greater than 500 µM.
`Cc1cc(O)cc(CC[C@](C)(O)CCC[C@H](C)CCC[C@H](C)CCCC(C)C)c1O` was tested, and the MIC was greater than 500 µM.
`CC1=CC(=O)C=C(CC[C@](C)(O)CCC[C@H](C)CCC[C@H](C)CCCC(C)C)C1=O` was tested, and the MIC was greater than 500 µM.
Molecule `CC(C)=CCC[C@@](C)(O)[C@@H]1CC/C(C)=C/CC/C(C)=C/Cc2cc(ccc2O)C(=O)O1` [CALLOPHYCOLIDE A] has an MIC of 9.1 µM (≈ 3.88 µg/mL).

These molecules were tested on Candida albicans (assay: Antimicrobial activity against amphotericin B-resistant Candida albicans).
Type: functional
`CC1=C2Cc3cc(ccc3O)C(=O)O[C@H](C(C)(C)Br)CC[C@](C)(O)[C@H](Br)CC[C@]2(C)[C@@H](Br)CC1` was tested, and the MIC was 49 µM (≈ 32.6 µg/mL).
Molecule `CC1=C2Cc3cc(ccc3O)C(=O)O[C@H](C(C)(C)O)CC[C@]3(C)O[C@H]3C/C=C(\C)C2CC1` (some centres not stated) has an MIC greater than 500 µM.
Work on `CC1=CC(=O)C=C(CC[C@](C)(O)CCC[C@H](C)CCC[C@H](C)CCCC(C)C)C1=O` yielded an MIC greater than 500 µM.
For `CC(C)=CCC[C@@](C)(O)[C@@H]1CC/C(C)=C/CC/C(C)=C/Cc2cc(ccc2O)C(=O)O1` [CALLOPHYCOLIDE A], the MIC was greater than 250 µM.

What follows are molecules tested on CCRF-CEM (assay: Anticancer activity against human CCRF-CEM cells).
Type: functional, cell-based
Molecule `CC(C)=CCC[C@@](C)(O)[C@@H]1CC/C(C)=C/CC/C(C)=C/Cc2cc(ccc2O)C(=O)O1` [CALLOPHYCOLIDE A] has an IC50 of 7.5 µM.
